Results published in PMC10820135, “Pharmacokinetic, Tissue Distribution, Metabolite, and Toxicity Evaluation of the Matrine Derivative, (6aS, 10S, 11aR, 11bR, 11cS)-10-Methylaminododecahydro-3a, 7a-Diaza-benzo (de) Anthracene-8-thione” (Molecules, 2024).

Experiments:
[1] = Metabolite profiling of MASM in rats by UHPLC-QQQ-MS/MS; type: in vivo, Sprague-Dawley rats; conditions: rat, MASM i.p. 80 mg/kg, i.g. 60 mg/kg
Procedure: The identification of the in vivo metabolites of MASM was conducted using UHPLC-QQQ-MS/MS combined with standard references and deuterium-labeled MASM. The findings are presented in Table 2, while the proposed primary metabolic pathway of MASM in rats is depicted in Figure 4. To provide a comprehensive understanding of the metabolite identification process, three representative metabolites of MASM are presented, with their identification relying on primary and secondary mass spectrometry data, standard references, and deuterium-labeled MASM. The remaining metabolites are detailed in Supplementary File S4. For instance, the identification of the metabolite, M1, as a demethylation product of MASM was accomplished through the utilization of MS, MS/MS data, and the standard reference. […] Moreover, the identification of M1 as the demethylation metabolite of MASM was accomplished using the standard reference synthesized in our laboratory. […] Secondly, the metabolite, M2, of MASM was identified as the dehydrogenation product of MASM through the utilization of MS and MS/MS data. […] Consequently, M2 was identified as a dehydrogenation metabolite of M1. Thirdly, through the utilization of MS, MS/MS data, and deuterium-labeled MASM, the metabolite, M8, of MASM was determined to be a dehydrogenation product of MASM. […] The major MS/MS fragment ions of M8 were found at m/z 111.92, 178.77, 150.16, and 135.85, which aligned with the characteristic cleavage pattern of matrine. Additionally, our lab synthesized deuterium-labeled MASM to further support our proposed structure. […] Consequently, M8 was identified as a dehydrogenation metabolite of MASM. The EIC, MS/MS spectrum of M8 and deuterium-labeled MASM are all depicted in Figure 5C.
UHPLC analysis was performed using a Thermo Accela AS system, employing an ACQUITY UPLC®BEH C18 (Waters Corporation, Wexfords, Ireland) (1.7 µm, 2.1 × 100 mm) column and a binary solvent system consisting of water containing 0.1% formic acid as mobile phase A and acetonitrile as mobile phase B. For pharmacokinetic evaluation, the gradient elution was set as follows: 97% A from 0 to 2 min, 97–70% A from 2 to 3 min, 70–20% A from 3 to 3.5 min, 20% A from 3.5 to 3.6 min, 20–97% A from 3.6 to 3.7 min, and 97% A from 3.7 to 5 min. For the metabolic test, the gradient elution in full scan mode was set as follows: 97% A from 0 to 2 min, 97–70% A from 2 to 4 min, 70–20% A from 4 to 6 min, 20% A from 6 to 7 min, 20–97% A from 7 to 8 min, and 97% A from 8 to 10 min. The flow rate was 0.2 mL/min, with a temperature of 40 °C maintained and an injection volume of 5 μL. The QQQ-MS/MS analysis was conducted using a Thermo TSQ QUANTUM ACCESS MAX system equipped with an electrospray ionization (ESI) source. The spray voltages were set at 4.0 kV and 2.5 kV for positive and negative ion modes, respectively; capillary and vaporizer temperatures were 320 °C and 350 °C, respectively; sheath and aux gas pressures were 35 and 10 psi, respectively.
Seventy Sprague-Dawley rats were fasted overnight before dosing, with free access to water. Subsequently, the rats were randomly and equally divided into 7 groups: the control groups received 3 different routes of administration: intravenous, intraperitoneal, and intragastric (NS, saline 1 mL/100 g); MASM intraperitoneal group (A, i.p. 80 mg/kg), MASM intragastrical group (B, i.g. 60 mg/kg), MASM intravenous group (C, i.v. 15 mg/kg), and DMASM intragastrical group (D, i.g. 60 mg/kg). It is important to note that the recommended clinical dose of matrine injection is 0.15 g, which is equivalent to a dosage of 15 mg/kg in rats. MASM was administered via tail vein injection at a dosage of 1 mL/100 g for intravenous dosing, while for intraperitoneal dosing, MASM was injected at the lower-right side of the abdomen of rats. […]

[2] = cited from earlier work
mice = conditions: cited from earlier work

SMILES | Method of Administration after which the metabolite of MASM was found [1] | further results
O=C1C=CC[C@@H]2[C@H]3CCC[N+]4([O-])CCC[C@@H](CN12)[C@@H]34 (stereo partly shown) [M4, oxysophocarpine] | i.p. i.g. | –
O=C1CCC[C@@H]2[C@H]3CCC[N+]4([O-])CCC[C@@H](CN12)[C@@H]34 (stereo partly shown) [M5, oxymatrine] | i.p. i.g. | –
CNC1CC(S)N2CC3CCCN4CCCC(C34)C2C1 (stereo not shown) [M6] | i.p. i.g. | –
NC1CC(=S)N2CC3CCCN4CCCC(C34)C2C1 (stereo not shown) [M7] | i.p. i.g. | –
O=C1CCC[C@@H]2[C@H]3CCCN4CCC[C@@H](CN12)[C@@H]34 [matrine] | – | time of peak plasma concentration of matrine ([2]; after oral administration, ref Zhang et al. 11): 2.1 h; bioavailability of matrine ([2]; reported value, ref Yang et al. 12): 18.5%; LD50 of matrine (mice): 83.21 mg/kg

The next lines start with results.

Method of Administration after which the metabolite of MASM was found [1] | SMILES | further results
i.g. | CN[C@@H]1CC(=S)N2CC3CCCN4C=CCC(C34)C2C1 (stereo partly shown) [M8] | –
i.g. | OCNC1CC(=S)N2CC3CCCN4CCCC(C34)C2C1 (stereo not shown) [M9] | –
i.g. | O=CNC1CC(=S)N2CC3CCCN4CCCC(C34)C2C1 (stereo not shown) [M10] | –
